Experimental data from US8822530B2, “Sulfur derivatives as chemokine receptor modulators” (Allergan, Inc., priority 2010, dated 2014).

target: T1, CCR2 receptor (Homo sapiens, UniProt P41597); test: Calcium activity assay on FLIPR Tetra in HEK-Gqi5 cells stably expressing CCR2; type: cell-based
T1 construct: expressed in transfected cells
Experimental: HEK-Gqi5 cells stably expressing CCR2 were cultured in DMEM high glucose, 10% FBS, 1% PSA, 400 μg/ml geneticin and 50 μg/ml hygromycin. Appropriate positive control chemokines (MCP-1, MIP1A or RANTES) was used as the positive control agonist for screening compound-induced calcium activity assayed on the FLIPR^Tetra. The drug plates were prepared in 384-well microplates using the EP3 and the MultiPROBE robotic liquid handling systems. Compounds were synthesized and tested for CCR2 activity.

T1 sequence (P41597 whole entry): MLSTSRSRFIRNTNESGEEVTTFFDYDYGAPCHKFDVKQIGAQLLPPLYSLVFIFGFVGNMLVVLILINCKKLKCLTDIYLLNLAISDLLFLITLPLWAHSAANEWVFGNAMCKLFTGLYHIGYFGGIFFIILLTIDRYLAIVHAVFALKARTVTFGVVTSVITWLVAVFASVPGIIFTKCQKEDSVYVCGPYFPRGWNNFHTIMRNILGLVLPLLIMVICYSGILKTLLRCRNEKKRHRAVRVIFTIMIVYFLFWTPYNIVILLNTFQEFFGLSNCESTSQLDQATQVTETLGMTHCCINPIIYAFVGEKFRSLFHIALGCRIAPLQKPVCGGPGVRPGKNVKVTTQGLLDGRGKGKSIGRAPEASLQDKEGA

| SMILES | CCR2 % ANTAGONISM [%] | IC50 [nM] |
| --- | --- | --- |
| O=C(CC[S+]([O-])c1ccc(Cl)cc1NS(=O)(=O)c1ccc(Cl)c(C(F)(F)F)c1)N1CCCC1 (stereo not shown) [4-chloro-N-(5-chloro-2-{[3-oxo-3-(pyrrolidin-1-yl)propyl]sulfinyl}phenyl)-3-(trifluoromethyl)benzenesulfonamide] | 72 | 1660 |
| O=C(CCS(=O)(=O)c1ccc(Cl)cc1NS(=O)(=O)c1ccc(Cl)c(C(F)(F)F)c1)N1CCCC1 [4-chloro-N-(5-chloro-2-{[3-oxo-3-(pyrrolidin-1-yl)propyl]sulfonyl}phenyl)-3-(trifluoromethyl)benzenesulfonamide] | 58 |  |
| O=C(O)CSc1ccc(Cl)cc1NS(=O)(=O)c1cc2ccccc2o1 [({2-[(1-benzofuran-2-ylsulfonyl)amino]-4-chlorophenyl}sulfanyl)acetic acid] | 95 | 484 |
| O=C(O)CNC(=O)c1ccc(CSc2ccc(Cl)cc2NS(=O)(=O)c2ccc(Cl)c(C(F)(F)F)c2)cc1 [({[4-({[4-chloro-2-({[4-chloro-3-(trifluoromethyl)phenyl]sulfonyl}amino)phenyl]sulfanyl}methyl)phenyl]carbonyl}amino)acetic acid] | 75 |  |
| CC(=O)Nc1cccc(CSc2ccc(Cl)cc2N(C(C)=O)S(=O)(=O)c2cc3ccccc3o2)c1 [N-(2-{[3-(acetylamino)benzyl]sulfanyl}-5-chlorophenyl)-N-(1-benzofuran-2-ylsulfonyl)acetamide] | 73 | 1610 |
| O=S(=O)(Nc1cc(Cl)ccc1SCc1ccccc1)c1ccc(Cl)c(C(F)(F)F)c1 [N-[2-(benzylsulfanyl)-5-chlorophenyl]-4-chloro-3-(trifluoromethyl)benzenesulfonamide] | 68 | 1280 |
| N#Cc1ccc(NS(=O)(=O)c2cc3ccccc3o2)c([S+]([O-])Cc2ccccc2)c1 (stereo not shown) [N-[2-(benzylsulfinyl)-4-cyanophenyl]-1-benzofuran-2-sulfonamide] | 94 | 1030 |
| O=S(=O)(Nc1cc(Cl)ccc1[S+]([O-])Cc1ccccc1)c1ccc(Cl)c(C(F)(F)F)c1 (stereo not shown) [N-[2-(benzylsulfinyl)-5-chlorophenyl]-4-chloro-3-(trifluoromethyl)benzenesulfonamide] | 77 | 493 |
| N#Cc1ccc(NS(=O)(=O)c2cc3ccccc3o2)c(S(=O)(=O)Cc2ccccc2)c1 [N-[2-(benzylsulfonyl)-4-cyanophenyl]-1-benzofuran-2-sulfonamide] | 96 | 888 |

Results, then the compound that gave them:

| CCR2 % ANTAGONISM [%] | IC50 [nM] | SMILES |
| --- | --- | --- |
| 23 | 2100 | O=C(O)c1ccc(C[S+]([O-])c2ccc(Cl)cc2NS(=O)(=O)c2ccc(Cl)c(C(F)(F)F)c2)cc1 (stereo not shown) [4-({[4-chloro-2-({[4-chloro-3-(trifluoromethyl)phenyl]sulfonyl}amino)phenyl]sulfinyl}methyl)benzoic acid] |
| 60 | 2290 | O=C(CCSc1ccc(Cl)cc1NS(=O)(=O)c1ccc(Cl)c(C(F)(F)F)c1)N1CCCC1 [4-chloro-N-(5-chloro-2-{[3-oxo-3-(pyrrolidin-1-yl)propyl]sulfanyl}phenyl)-3-(trifluoromethyl)benzenesulfonamide] |
| 24 |  | O=C(O)CNC(=O)c1ccc(C[S+]([O-])c2ccc(Cl)cc2NS(=O)(=O)c2ccc(Cl)c(C(F)(F)F)c2)cc1 (stereo not shown) [({[4-({[4-chloro-2-({[4-chloro-3-(trifluoromethyl)phenyl]sulfonyl}amino)phenyl]sulfinyl}methyl)phenyl]carbonyl}amino)acetic acid] |
| 79 | 604 | N#Cc1ccc(NS(=O)(=O)c2cc3ccccc3o2)c(SCc2ccccc2)c1 [N-[2-(benzylsulfanyl)-4-cyanophenyl]-1-benzofuran-2-sulfonamide] |
| 71 | 538 | O=S(=O)(Cc1ccccc1)c1ccc(Cl)cc1NS(=O)(=O)c1ccc(Cl)c(C(F)(F)F)c1 [N-[2-(benzylsulfonyl)-5-chlorophenyl]-4-chloro-3-(trifluoromethyl)benzenesulfonamide] |
